In assay [1] the target is T1, human GPCR sphingosine 1-phosphate receptor 1 (Homo sapiens, UniProt P21453).
T1 construct: host or cells: CHO
Description: S1PR1 selectivity Ca2+ flux assay (antagonist readout). The conditions noted are these: antagonist readout, CHO cells overexpressing human S1PR1 and Gq, S1P at EC80 (6 nM); read-out: S1P1 EC50 (nM), S1P1 antagonist EC50. In kind it is cell-based. An outline of the steps: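 CHO cells stably overexpressing human S1PR1, starved 1 h in 0.1% FAF BSA medium, then Fluo 8 dye-loaded. Compound added, then after 15 min at 37 °C, S1P-evoked Ca2+ flux recorded. Maximal signal/background ratio normalized to controls as % inhibition; IC50 from four-parameter logistic fit.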

Assay [2] deals with HFL-1 cells. Description: IL-8 production assay (S1P induced IL-8). In kind it is cell-based. The conditions noted are these: Homo sapiens, HFL1; S1P (1 μM) induced IL-8 in HFL-1 cells, starvation medium without HSA; read-out: IL8 EC50. The essentials:
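HFL-1 human fetal lung fibroblasts were starved in F12K/1% FBS, then given compound for 1 h (10-point, 1/3 dilution, 30 μM top, 0.3% DMSO final). S1P was added at 1 μM final for 16–24 h at 37 °C, and secreted IL-8 in supernatant quantified by ELISA.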

The target of another assay is T2, S1PR2 (Homo sapiens, UniProt O95136).
T2 construct: expressed in transfected cells
T2 sequence (O95136 whole entry): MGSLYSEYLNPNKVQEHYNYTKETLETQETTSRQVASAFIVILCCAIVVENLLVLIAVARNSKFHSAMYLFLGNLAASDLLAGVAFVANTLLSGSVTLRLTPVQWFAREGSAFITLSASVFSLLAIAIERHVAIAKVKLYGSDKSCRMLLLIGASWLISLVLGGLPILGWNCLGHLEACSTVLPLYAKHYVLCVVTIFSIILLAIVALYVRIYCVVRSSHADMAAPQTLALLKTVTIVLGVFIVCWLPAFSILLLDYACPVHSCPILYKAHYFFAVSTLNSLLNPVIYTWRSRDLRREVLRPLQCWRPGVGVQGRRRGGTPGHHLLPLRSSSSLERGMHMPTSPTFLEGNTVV
Description: S1PR2 binding assay (competition with radioactively labeled S1P, SpA). The settings on record: membranes from stable cell line over expressing S1PR2, SpA beads; read-out: S1P2 EC50 (nM), S1PR2 binding EC50. An outline of the steps: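 Competition with [3H]S1P for membranes from a stable S1PR2-overexpressing cell line, 20 μg/well, captured on PVT-WGA SPA beads, in 20 mM Tris pH 7.5, 10 mM MgCl2, 100 mM NaCl, 0.4% fatty-acid-free BSA, 1 mM Na3VO4. 2 h at room temperature, then centrifugation and scintillation counting.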

The subject of assay [3] is HFL-1 cells. Description: IL8 assay in the presence of Human Serum Albumin. The conditions noted are these: HFL1, read-out: HSA IL8 EC50.
In assay [4] the target is T3, human GPCR sphingosine 1-phosphate receptor 2 (Homo sapiens, UniProt O95136).
T3 construct: host or cells: CHO
T3 sequence (O95136 whole entry): as above
In words: S1PR2 antagonist Ca2+ flux assay. In kind it is cell-based. The settings on record: antagonist mode, CHO-S1PR2 cells, S1P at EC80, Ca2+ fluorescence; read-out: S1P2 EC50 (nM), S1P2 antagonist EC50. An outline of the steps:
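CHO cells stably expressing human S1PR2, serum-starved 1 h, Fluo8-loaded; compound-evoked Ca2+ fluorescence read 3 min (agonist mode), then after 15 min S1P at EC80 added and read 3 min (antagonist mode). Max/baseline fluorescence ratios normalised to vehicle and S1P EC100 or EC50 controls; EC50 derived.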

Assay [5] addresses T4, human GPCR sphingosine 1-phosphate receptor 5 (Homo sapiens, UniProt Q9H228).
T4 construct: host or cells: CHO
In words: S1PR5 selectivity Ca2+ flux assay (antagonist readout). The conditions noted are these: CHO cells overexpressing human S1PR5 and Gq, agonist at EC80 (20 nM), read-out: S1P5 EC50 (nM), S1P5 antagonist EC50. In kind it is cell-based. The essentials: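 CHO cells stably coexpressing human S1PR5 and Gq were serum-starved, Fluo 8-loaded and preincubated 15 min at 37° C with compound. They were then stimulated at EC80 with an S1PR5-specific agonist, and calcium fluorescence was recorded for 3 min. Peak/baseline ratios were normalized to controls and fitted to a four-parameter IC50 equation.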

Bounds are passed on as bounds.

T4 sequence (Q9H228 whole entry): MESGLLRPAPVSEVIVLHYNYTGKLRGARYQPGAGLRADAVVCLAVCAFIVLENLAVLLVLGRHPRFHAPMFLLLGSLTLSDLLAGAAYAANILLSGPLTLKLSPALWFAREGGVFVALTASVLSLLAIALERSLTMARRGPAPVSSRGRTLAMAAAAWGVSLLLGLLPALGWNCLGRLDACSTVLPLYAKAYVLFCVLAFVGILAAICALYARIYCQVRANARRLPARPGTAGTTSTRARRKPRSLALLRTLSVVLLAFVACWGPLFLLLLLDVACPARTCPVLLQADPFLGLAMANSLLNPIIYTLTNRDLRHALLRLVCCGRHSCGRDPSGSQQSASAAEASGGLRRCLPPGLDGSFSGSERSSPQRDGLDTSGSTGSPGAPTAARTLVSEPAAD
T1 sequence (P21453 whole entry): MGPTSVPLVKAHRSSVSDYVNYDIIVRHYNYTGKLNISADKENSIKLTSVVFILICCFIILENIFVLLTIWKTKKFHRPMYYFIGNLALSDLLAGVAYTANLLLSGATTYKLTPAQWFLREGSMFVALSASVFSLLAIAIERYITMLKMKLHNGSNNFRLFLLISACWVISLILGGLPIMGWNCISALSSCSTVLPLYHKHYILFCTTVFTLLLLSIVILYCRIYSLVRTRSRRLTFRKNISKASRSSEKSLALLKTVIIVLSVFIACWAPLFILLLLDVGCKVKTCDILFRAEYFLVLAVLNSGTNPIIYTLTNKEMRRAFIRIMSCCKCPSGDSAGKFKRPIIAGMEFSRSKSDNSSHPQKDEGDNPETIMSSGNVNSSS

For the compound `COCCOc1cc2nc(Cc3nn(C4CCNC4)c(=O)c4ccccc34)[nH]c2cc1Cl` (stereo not drawn) [Compound 67, 4-[[6-chloro-5-(2-methoxyethoxy)-1H-benzimidazol-2-yl]methyl]-2-pyrrolidin-3-yl-phthalazin-1-one], the EC50 was at least 19800 nM in assay [1]; 9.07 nM in the assay with HFL-1 cells [2]; 64.9 nM on S1PR2; 19.2 nM in the assay on HFL-1 cells [3]; 37.4 nM in assay [4]; 19800 nM in assay [5].

With `N#Cc1cc2[nH]c(Cc3nn(C4CNC4)c(=O)c4ccccc34)nc2cc1OCC(F)F` [Compound 68, 2-[[3-(azetidin-3-yl)-4-oxo-phthalazin-1-yl]methyl]-6-(2,2-difluoroethoxy)-3H-benzimidazole-5-carbonitrile], the EC50 in assay [1] is at least 19800 nM; in the assay on HFL-1 cells [2], 76.7 nM; on S1PR2, 275 nM; with HFL-1 cells [3] it was 123 nM; in assay [4], 547 nM; in assay [5] it was 19800 nM.

Regarding `N#Cc1cc2[nH]c(Cc3nn(C4CN(CC(=O)O)C4)c(=O)c4ccccc34)nc2cc1OCC(F)F` [Compound 69, 2-[3-[4-[[6-cyano-5-(2,2-difluoroethoxy)-1H-benzimidazol-2-yl]-methyl]-1-oxo-phthalazin-2-yl]azetidin-1-yl]acetic acid], the EC50 is at least 19800 nM in assay [1]; 109 nM with HFL-1 cells [2]; 272 nM at S1PR2; 96.3 nM in the assay with HFL-1 cells [3]; 238 nM in assay [4]; 19800 nM in assay [5].

For `N#Cc1cc2[nH]c(Cc3nn(CC4CCCN4CC(=O)O)c(=O)c4ccccc34)nc2cc1OCC(F)F` (stereo not drawn) [Compound 70, 2-[2-[[4-[[6-cyano-5-(2,2-difluoroethoxy)-1H-benzimidazol-2-yl]methyl]-1-oxo-phthalazin-2-yl]methyl]pyrrolidin-1-yl]acetic acid], the EC50 is at least 19800 nM in assay [1]; 251 nM in the assay on HFL-1 cells [2]; 2100 nM at S1PR2; 443 nM with HFL-1 cells [3]; 836 nM in assay [4]; 19800 nM in assay [5].

Turning to `N#Cc1cc2[nH]c(Cc3nn(C4CCN(CC(=O)O)C4)c(=O)c4ccccc34)nc2cc1OCC(F)F` (stereo not drawn) [Compound 71, 2-[3-[4-[[6-cyano-5-(2,2-difluoroethoxy)-1H-benzimidazol-2-yl]methyl]-1-oxo-phthalazin-2-yl]pyrrolidin-1-yl]acetic acid], the EC50 in assay [1] was at least 19800 nM; with HFL-1 cells [2] it was 156 nM; at S1PR2 it was 357 nM; with HFL-1 cells [3], 134 nM; in assay [4], 356 nM; in assay [5] it was 19800 nM.

Consider `N#Cc1cc2nc(Cc3nn(CC(=O)O)c(=O)c4ccccc34)cn2cc1OCC1CC1` [Compound 79, 2-[4-[[7-cyano-6-(cyclopropylmethoxy)imidazo[1,2-a]pyridin-2-yl]methyl]-1-oxo-phthalazin-2-yl]acetic acid], for which the concentration giving a half-maximal response (EC50) in assay [1] is at least 19800 nM; with HFL-1 cells [2] it was 57.7 nM; on S1PR2, 221 nM; with HFL-1 cells [3], 503 nM; in assay [4], 82.7 nM; in assay [5], 19800 nM.

For `N#Cc1cc2[nH]c(Cn3cc(C(=O)O)c(=O)c4ccccc43)nc2cc1OCC(F)F` [Compound 80, 1-[[6-cyano-5-(2,2-difluoroethoxy)-1H-benzimidazol-2-yl]methyl]-4-oxo-quinoline-3-carboxylic acid], the EC50 in assay [1] is at least 19800 nM; with HFL-1 cells [2] it was 46.8 nM; on S1PR2, 619 nM; with HFL-1 cells [3], 122 nM; in assay [4], 42.3 nM; in assay [5] it was 19800 nM.

In the case of `CC(C(=O)O)n1nc(Cc2cn3cc(OCC4CC4)c(C#N)cc3n2)c2ccccc2c1=O` (stereo not drawn) [Compound 81, 2-[4-[[7-cyano-6-(cyclopropylmethoxy)imidazo[1,2-a]pyridin-2-yl]methyl]-1-oxo-phthalazin-2-yl]propanoic acid], the concentration giving a half-maximal response (EC50) is at least 19800 nM in assay [1]; 20 nM in the assay with HFL-1 cells [2]; 120 nM on S1PR2; 151 nM in the assay on HFL-1 cells [3]; 22.6 nM in assay [4]; 19800 nM in assay [5].

The values are drawn from patent publication US20210315893A1 (Galapagos NV, priority 2017, published 2021).
